# Laboratory results as given in patent US9511058B2, “Methods for using carboxamide, sulfonamide and amine compounds” (Rigel Pharmaceuticals, Inc., priority 2010, dated 2016).
# Target: AMPK
# Test: AMPK activation, enzyme-linked immunosorbent assay
# Assay type: biochemical
# Details: compounds of Table 1 (Table 6)
row,EC50 [nM],SMILES
1,100 to 500,"Fc1ccc(CN2CCC(NC3CCc4cc(OC5CCN(c6ccc(C(F)(F)F)cc6)CC5)ccc43)CC2)cc1 (stereo not shown) [1-159, 1-(4-fluorobenzyl)-N-(5-(1-(4-(trifluoromethyl)phenyl)piperidin-4-yloxy)-2,3-dihydro-1H-inden-1-yl)piperidin-4-amine]"
2,< 100,"N#Cc1ccc(CN2CCC(NC3CCc4cc(OC5CCN(c6ccc(C(F)(F)F)cc6)CC5)ccc43)CC2)cc1 (stereo not shown) [1-160, 4-((4-(5-(1-(4-(trifluoromethyl)phenyl)piperidin-4-yloxy)-2,3-dihydro-1H-inden-1-ylamino)piperidin-1-yl)methyl)benzonitrile]"

# Same assay, conditions: compounds of Table 2 (Table 7)
row,EC50 [nM],SMILES
1,1000 to 5000,"N#Cc1ccc(CN2CCC(NC(=O)c3ccc4[nH]c5c(c4c3)CN(C(=O)OCc3ccccc3)CC5)CC2)cc1 [2-1, benzyl 8-(1-(4-cyanobenzyl)piperidin-4-ylcarbamoyl)-3,4-dihydro-1H-pyrido[4,3-b]indole-2(5H)-carboxylate]"
2,10000 to 50000,"O=C(NC1CCN(Cc2ccccc2)CC1)c1ccc2[nH]c3c(c2c1)CN(C(=O)OCc1ccccc1)CC3 [2-2, benzyl 8-(1-(4-benzyl)piperidin-4-ylcarbamoyl)-3,4-dihydro-1H-pyrido[4,3-b]indole-2(5H)-carboxylate]"
3,1000 to 5000,"N#Cc1ccc(CN2CCC(NC(=O)c3ccc4[nH]c5c(c4c3)CN(Cc3ccccc3)CC5)CC2)cc1 [2-4, 2-benzyl-N-(1-(4-cyanobenzyl)piperidin-4-yl)-2,3,4,5-tetrahydro-1H-pyrido[4,3-b]indole-8-carboxamide]"
4,1000 to 5000,"O=C(NC1CCN(Cc2ccc(C(F)(F)F)cc2)CC1)c1ccc2[nH]c3c(c2c1)CN(Cc1ccccc1)CC3 [2-5, 2-benzyl-N-(1-(4-trifluoromethylbenzyl)piperidin-4-yl)-2,3,4,5-tetrahydro-1H-pyrido[4,3-b]indole-8-carboxamide]"
5,500 to 1000,"CC(C)(C)OC(=O)N1CCC(NC(=O)c2ccc3[nH]c4c(c3c2)CN(Cc2ccc(C(F)(F)F)cc2)CC4)CC1 [2-6, tert-butyl 4-(2-(4-(trifluoromethyl)benzyl)-2,3,4,5-tetrahydro-1H-pyrido[4,3-b]indole-8-carboxamido) piperidine-1-carboxylate]"
6,5000 to 10000,"O=C(NC1CCN(Cc2ccncc2)CC1)c1ccc2[nH]c3c(c2c1)CN(Cc1ccccc1)CC3 [2-7, 2-benzyl-N-(1-(pyridin-4-ylmethyl)piperidin-4-yl)-2,3,4,5-tetrahydro-1H-pyrido[4,3-b]indole-8-carboxamide]"
7,5000 to 10000,"O=C(NC1CCN(Cc2cccnc2)CC1)c1ccc2[nH]c3c(c2c1)CN(Cc1ccc(F)cc1)CC3 [2-8, 2-(4-fluorobenzyl)-N-(1-(pyridin-3-ylmethyl)piperidin-4-yl)-2,3,4,5-tetrahydro-1H-pyrido[4,3-b]indole-8-carboxamide]"
8,< 500,"N#Cc1ccc(CN2CCC(NC(=O)c3ccc4[nH]c5c(c4c3)CN(Cc3ccc(F)cc3)CC5)CC2)cc1 [2-9, N-(1-(4-cyanobenzyl)piperidin-4-yl)-2-(4-fluorobenzyl)-2,3,4,5-tetrahydro-1H-pyrido[4,3-b]indole-8-carboxamide]"
9,500 to 1000,"O=C(NC1CCN(Cc2ccc(C(F)(F)F)cc2)CC1)c1ccc2[nH]c3c(c2c1)CN(Cc1ccc(F)cc1)CC3 [2-10, N-(1-(4-trifluoro-methylbenzyl)piperidin-4-yl)-2-(4-fluorobenzyl)-2,3,4,5-tetrahydro-1H-pyrido[4,3-b] indole-8-carboxamide]"
10,< 500,"O=C(NC1CCN(Cc2cccnc2)CC1)c1ccc2[nH]c3c(c2c1)CN(Cc1ccc(C(F)(F)F)cc1)CC3 [2-11, N-(1-(pyridin-3-ylmethyl)piperidin-4-yl)-2-(4-(trifluoromethyl)benzyl)-2,3,4,5-tetrahydro-1H-pyrido [4,3-b]indole-8-carboxamide]"
11,< 500,"N#Cc1ccc(CN2CCC(NC(=O)c3ccc4[nH]c5c(c4c3)CN(Cc3ccc(C(F)(F)F)cc3)CC5)CC2)cc1 [2-12, N-(1-(4-cyanobenzyl)piperidin-4-yl)-2-(4-(trifluoromethyl)benzyl)-2,3,4,5-tetrahydro-1H-pyrido [4,3-b]indole-8-carboxamide]"
12,< 500,"O=C(NC1CCN(Cc2ccc(C(F)(F)F)cc2)CC1)c1ccc2[nH]c3c(c2c1)CN(Cc1ccc(C(F)(F)F)cc1)CC3 [2-13, N-(1-(4-trifluoromethyl-benzyl)piperidin-4-yl)-2-(4-(trifluoro-methyl)benzyl)-2,3,4,5-tetrahydro-1H-pyrido[4,3-b]indole-8-carboxamide]"
13,< 500,"O=C(NC1CCN(CCc2ccccc2)CC1)c1ccc2[nH]c3c(c2c1)CN(Cc1ccc(C(F)(F)F)cc1)CC3 [2-14, N-(1-phenethyl-piperidin-4-yl)-2-(4-(trifluoromethyl)benzyl)-2,3,4,5-tetrahydro-1H-pyrido[4,3-b]indole-8-carboxamide]"
14,< 500,"O=C(NC1CCN(c2ccc(F)cc2)CC1)c1ccc2[nH]c3c(c2c1)CN(Cc1ccc(C(F)(F)F)cc1)CC3 [2-15, N-(1-(4-fluorophenyl)piperidin-4-yl)-2-(4-(trifluoromethyl)benzyl)-2,3,4,5-tetrahydro-1H-pyrido[4,3-b]indole-8-carboxamide]"
15,< 500,Cn1c2c(c3cc(C(=O)NC4CCN(Cc5ccc(C#N)cc5)CC4)ccc31)CN(Cc1ccc(C(F)(F)F)cc1)CC2 [2-16]
16,500 to 1000,"Cn1c2c(c3cc(C(=O)NC4CCN(Cc5ccc(C(F)(F)F)cc5)CC4)ccc31)CN(Cc1ccc(C(F)(F)F)cc1)CC2 [2-17, N-(1-(4-trifluoro-methylbenzyl)piperidin-4-yl)-5-methyl-2-(4-(trifluoromethyl)benzyl)-2,3,4,5-tetrahydro-1H-pyrido[4,3-b]indole-8-carboxamide]"
17,1000 to 5000,"Cn1c2c(c3cc(C(=O)NC4CCN(Cc5cccnc5)CC4)ccc31)CN(Cc1ccc(C(F)(F)F)cc1)CC2 [2-18, 5-methyl-N-(1-(pyridin-3-ylmethyl)piperidin-4-yl)-2-(4-(trifluoromethyl)benzyl)-2,3,4,5-tetrahydro-1H-pyrido[4,3-b]indole-8-carboxamide]"
18,> 100000,"O=C(NC1CCN(Cc2ccccc2)CC1)c1ccc2[nH]c3c(c2c1)CN(S(=O)(=O)c1ccc(C(F)(F)F)cc1)CC3 [2-19, N-(1-benzylpiperidin-4-yl)-2-(4-(trifluoromethyl)phenylsulfonyl)-2,3,4,5 - tetrahydro-1H-pyrido[4,3-b]indole-8-carboxamide]"
19,1000 to 5000,"CC(=O)n1c2c(c3cc(C(=O)NC4CCN(Cc5cccnc5)CC4)ccc31)CN(Cc1ccc(C(F)(F)F)cc1)CC2 [2-20, 5-acetyl-N-(1-(pyridin-3-ylmethyl)piperidin-4-yl)-2-(4-(trifluoromethyl)benzyl)-2,3,4,5-tetrahydro-1H-pyrido[4,3-b]indole-8-carboxamide]"
20,500 to 1000,"N#Cc1ccc(S(=O)(=O)N2CCC(NC(=O)c3ccc4[nH]c5c(c4c3)CN(Cc3ccc(C(F)(F)F)cc3)CC5)CC2)cc1 [2-21, N-(1-(4-cyanophenyl-sulfonyl)piperidin-4-yl)-2-(4-(trifluoro-methyl)benzyl)-2,3,4,5-tetrahydro-1H-pyrido[4,3-b]indole-8-carboxamide]"
21,500 to 1000,"O=C(NC1CCN(S(=O)(=O)c2cccnc2)CC1)c1ccc2[nH]c3c(c2c1)CN(Cc1ccc(C(F)(F)F)cc1)CC3 [2-22, N-(1-(pyridin-3-ylsulfonyl)piperidin-4-yl)-2-(4-(trifluoromethyl)benzyl)-2,3,4,5-tetrahydro-1H-pyrido[4,3-b]indole-8-carboxamide]"
22,1000 to 5000,"O=C(NC1CCN(S(=O)(=O)c2ccc(C(F)(F)F)cc2)CC1)c1ccc2[nH]c3c(c2c1)CN(Cc1ccc(C(F)(F)F)cc1)CC3 [2-23, 2-(4-(trifluoromethyl)benzyl)-N-(1-(4-(trifluoromethyl)phenylsulfonyl)piperidin-4-yl)-2,3,4,5-tetrahydro-1H-pyrido[4,3-b]indole-8-carboxamide]"
23,1000 to 5000,"N#Cc1ccc(CN2CCC(NC(=O)c3ccc4[nH]c5c(c4c3)CN(S(=O)(=O)c3ccc(C(F)(F)F)cc3)CC5)CC2)cc1 [2-24, N-(1-(4-cyanobenzyl)piperidin-4-yl)-2-(4-(trifluoromethyl)phenylsulfonyl)-2,3,4,5-tetrahydro-1H-pyrido [4,3-b]indole-8-carboxamide]"
24,10000 to 50000,"N#Cc1ccc(CN2CCC(NC(=O)c3ccc4[nH]c5c(c4c3)CN(S(=O)(=O)c3ccc(C#N)cc3)CC5)CC2)cc1 [2-25, N-(1-(4-cyanobenzyl)piperidin-4-yl)-2-(4-cyanophenylsulfonyl)-2,3,4,5-tetrahydro-1H-pyrido[4,3-b] indole-8-carboxamide]"
25,10000 to 50000,"N#Cc1ccc(CN2CCC(NC(=O)c3ccc4[nH]c5c(c4c3)CN(S(=O)(=O)c3cccnc3)CC5)CC2)cc1 [2-26, N-(1-(4-cyanobenzyl)piperidin-4-yl)-2-(pyridin-3-ylsulfonyl)-2,3,4,5-tetrahydro-1H-pyrido[4,3-b] indole-8-carboxamide]"
26,1000 to 5000,"N#Cc1ccc(NC(=O)N2CCC(NC(=O)c3ccc4[nH]c5c(c4c3)CN(Cc3ccc(C(F)(F)F)cc3)CC5)CC2)cc1 [2-27, N-(1-(4-cyanophenyl-carbamoyl)piperidin-4-yl)-2-(4-(trifluoromethyl)benzyl)-2,3,4,5-tetrahydro-1H-pyrido [4,3-b]indole-8-carboxamide]"
27,1000 to 5000,"O=C(NC1CCN(S(=O)(=O)c2ccc(F)cc2)CC1)c1ccc2[nH]c3c(c2c1)CN(Cc1ccc(C(F)(F)F)cc1)CC3 [2-28, N-(1-(4-fluorophenyl-sulfonyl)piperidin-4-yl)-2-(4-(trifluoro-methyl)benzyl)-2,3,4,5-tetrahydro-1H-pyrido [4,3-b]indole-8-carboxamide]"
28,1000 to 5000,"N#Cc1cccc(S(=O)(=O)N2CCC(NC(=O)c3ccc4[nH]c5c(c4c3)CN(Cc3ccc(C(F)(F)F)cc3)CC5)CC2)c1 [2-29, N-(1-(3-cyanophenyl-sulfonyl)piperidin-4-yl)-2-(4-(trifluoro-methyl)benzyl)-2,3,4,5-tetrahydro-1H-pyrido[4,3-b]indole-8-carboxamide]"

row,SMILES,EC50 [nM]
1,"CC(C)(C)OC(=O)N1CCC(NC(=O)c2ccc3[nH]c4c(c3c2)CN(C(=O)OCc2ccccc2)CC4)CC1 [2-3, benzyl 8-(1-(tert-butoxycarbonyl)piperidin-4-ylcarbamoyl)-3,4-dihydro-1H-pyrido[4,3-b]indole-2(5H)-carboxylate]",10000 to 50000
